Data as given in patent US9982005B2, “Macrolides and methods of their preparation and use” (President and Fellows of Harvard College, priority 2013, dated 2018).
Converted amounts (≈) assume the structure as drawn. Where two headings read alike, the source gives them in different places.

Legend:
Format in all cases: cell-based
S. aureus strains = assay: MIC against S. aureus strains (Table M7); conditions: Staphylococcus aureus
Procedure, shortened: (§1)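 Standard CLSI broth dilution method used for MIC determination. Control: azithromycin.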

E. coli strains = assay: MIC against E. coli strains (Table M7); conditions: Escherichia coli, ATCC25922, E. coli ATCC 25922
Procedure, shortened: as §1

K. pneumoniae strains = assay: MIC against K. pneumoniae strains (Table M8); conditions: Klebsiella pneumoniae, K. pneumoniae 10031
[1] = system: SA101 S. aureus ATCC29213; assay: broth dilution MIC, S. aureus SA101; conditions: Staphylococcus aureus, ATCC29213, SA101 S. aureus ATCC29213; read-out: MIC
Description: (§2) We have collected MIC data for a total of 50 novel macrolides that this platform has produced against over 21 unique strains of B. subtilis, E. coli, S. aureus, S. pneumoniae, and H. influenzae, including several multidrug-resistant strains, with a special focus on macrolide resistant mechanisms (vide supra). Azithromycin was included as a control macrolide. CLSI standard procedures for broth dilution MIC determination were used. […] These genotypes can be constitutive or inducible. The finding that C4-epi (unnatural) isomers of the “azaketolide” macrolide class have enhanced activities relative to C4 natural isomers is very exciting.

E. faecalis strains = assay: MIC against E. faecalis strains (Table M8); conditions: Enterococcus faecalis, E. faecalis 29212
A. baumannii strains = assay: MIC against A. baumannii strains (Table M8); conditions: Acinetobacter baumannii, BAA747, A. baumannii BAA747-1
EC107 E. coli ATCC25922 = assay: broth dilution MIC, E. coli EC107; conditions: Escherichia coli, read-out: MIC
Description: as §2

BS1725 B. subtilis ermC = assay: broth dilution MIC, B. subtilis BS1725; conditions: Bacillus subtilis
Description: as §2

S. pneumoniae strains = assay: MIC against S. pneumoniae strains (Tables M7, M8); conditions: Streptococcus pneumoniae
Description: CLSI standard procedures for broth dilution MIC determination were used. […] These genotypes can be constitutive or inducible.

EC878 E. coli tolC = assay: broth dilution MIC, E. coli EC878; conditions: Escherichia coli
Description: as §2

H. influenzae strains = assay: MIC against H. influenzae strains (Table M8); conditions: Haemophilus influenzae
Procedure, shortened: as §1

[2] = system: BS1723 B. subtilis BS168 WT wild type; assay: broth dilution MIC, B. subtilis BS1723; conditions: Bacillus subtilis, BS1723 B. subtilis BS168 WT wild type; read-out: MIC
Description: as §2

EC882 E. coli imp = assay: broth dilution MIC, E. coli EC882; conditions: Escherichia coli
Description: as §2

[3] = ATCC29213, S. aureus ATCC 29213, read-out: MIC S. aureus (ATCC 29213)
[4] = S. aureus 506, read-out: MIC S. aureus (506)
[5] = S. aureus 1708, read-out: MIC S. aureus (1708)
[6] = USA300, S. aureus USA300, read-out: MIC S. aureus (USA300)
[7] = S. pneumoniae 160, read-out: MIC S. pneumonae (160)
[8] = S. pneumoniae 1509, read-out: MIC S. pneumoniae (1509)
[9] = S. pneumoniae 1533, read-out: MIC S. pneumoniae (1533)
[10] = S. pneumoniae 1537, read-out: MIC S. pneumoniae (1537)
[11] = S. pneumoniae 49619, read-out: MIC S. pneumoniae (49619)
[12] = H. influenzae 49247, read-out: MIC H. influenzae (49247)
[13] = H. influenzae 49766, read-out: MIC H. influenzae (49766)

Structure (SMILES) | MIC (S. aureus strains; [3]) [µg/mL] | MIC (S. aureus strains; [4]) [µg/mL] | MIC (S. aureus strains; [5]) [µg/mL] | MIC (S. aureus strains; [6]) [µg/mL] | MIC (E. coli strains) [µg/mL] | MIC (K. pneumoniae strains) [µg/mL] | MIC [1] [µg/mL] | MIC (E. faecalis strains) [µg/mL] | MIC (A. baumannii strains) [µg/mL] | MIC (EC107 E. coli ATCC25922) [µg/mL] | MIC (BS1725 B. subtilis ermC; BS1725 B. subtilis ermC (+ery)) [µg/mL] | MIC (S. pneumoniae strains; [7]) [µg/mL] | MIC (S. pneumoniae strains; [8]) [µg/mL] | MIC (S. pneumoniae strains; [9]) [µg/mL] | MIC (S. pneumoniae strains; [10]) [µg/mL] | MIC (S. pneumoniae strains; [11]) [µg/mL] | MIC (EC878 E. coli tolC) [µg/mL] | MIC [2] [µg/mL] | MIC (EC882 E. coli imp) [µg/mL] | MIC (BS1725 B. subtilis ermC; BS1725 B. subtilis ermC (−ery)) [µg/mL] | other results
CC[C@H]1OC(=O)[C@H](C)C(=O)[C@H](C)[C@@H](O[C@@H]2OC(C)CC(N(C)C)C2O)[C@](C)(OC)C[C@@H](C)CN[C@H](C)[C@H]2N(CCCCn3cc(-c4cccnn4)nn3)C(=O)O[C@]12C (stereo partly shown) [FSM-20710] | 2 (≈ 2.45 µM) | > 32 | 2 (≈ 2.45 µM) | 4 (≈ 4.91 µM) | 8 (≈ 9.82 µM) | 4 (≈ 4.91 µM) | 2 (≈ 2.45 µM) | 0.5 (≈ 0.613 µM) | 16 (≈ 19.6 µM) | 8 (≈ 9.82 µM) | 32 (≈ 39.3 µM) | 0.5 (≈ 0.613 µM) | 16 (≈ 19.6 µM) | > 32 | > 32 | 0.5 (≈ 0.613 µM) | 1 (≈ 1.23 µM) | 2 (≈ 2.45 µM) | 0.0625 (≈ 0.0767 µM) | – | MIC (H. influenzae strains; [12]): 0.5 µg/mL (≈ 0.613 µM); MIC (H. influenzae strains; [13]): 2 µg/mL (≈ 2.45 µM)
CC[C@H]1OC(=O)[C@H](C)C(=O)C[C@@H](O[C@@H]2OC(C)CC(N(C)C)C2O)[C@](C)(OC)C[C@@H](C)CN(C(C)=O)[C@H](C)[C@H]2N(CCCCn3cc(-c4ccccn4)nn3)C(=O)O[C@]12C (stereo partly shown) [FSM-10792] | – | – | – | – | – | – | > 32 | – | – | > 32 | > 32 | – | – | – | – | – | 4 (≈ 4.75 µM) | > 32 | 1 (≈ 1.19 µM) | > 32 | –
CC[C@H]1OC(=O)[C@H](C)C(=O)C[C@@H](O[C@@H]2OC(C)CC(N(C)C)C2O)[C@](C)(OC)C[C@@H](C)CN(C(C)=O)[C@H](C)[C@H]2N(CCCCn3cc(-c4nc5ccccc5s4)nn3)C(=O)O[C@]12C (stereo partly shown) [FSM-10791] | – | – | – | – | – | – | > 32 | – | – | > 32 | > 32 | – | – | – | – | – | 2 (≈ 2.23 µM) | > 32 | 0.5 (≈ 0.557 µM) | > 32 | –
CC[C@H]1OC(=O)[C@H](C)C(=O)C[C@@H](O[C@@H]2OC(C)CC(N(C)C)C2O)[C@](C)(OC)C[C@@H](C)CN[C@H](C)[C@H]2N(CCCCn3cc(-c4ccccn4)nn3)C(=O)O[C@]12C (stereo partly shown) [FSM-10786] | – | – | – | – | – | – | > 32 | – | – | > 32 | > 32 | – | – | – | – | – | 2 (≈ 2.5 µM) | > 32 | 0.25 (≈ 0.312 µM) | > 32 | –
CC[C@H]1OC(=O)[C@H](C)C(=O)C[C@@H](O[C@@H]2OC(C)CC(N(C)C)C2O)[C@@](C)(OC)C[C@@H](C)CN(C(C)=O)[C@H](C)[C@H]2N(CCCCn3cc(-c4nc5ccccc5s4)nn3)C(=O)O[C@]12C (stereo partly shown) [FSM-30514] | – | – | – | – | – | – | > 32 | – | – | > 32 | > 32 | – | – | – | – | – | > 32 | > 32 | > 32 | > 32 | –
CC[C@H]1OC(=O)[C@H](C)C(=O)[C@H](C)[C@@H](O[C@@H]2OC(C)CC(N(C)C)C2O)[C@](C)(OC)C[C@@H](C)CN[C@H](C)[C@H]2N(CCCCn3cc(-c4nccs4)nn3)C(=O)O[C@]12C (stereo partly shown) [FSM-20708] | 2 (≈ 2.44 µM) | > 32 | 2 (≈ 2.44 µM) | 2 (≈ 2.44 µM) | 4 (≈ 4.88 µM) | 2 (≈ 2.44 µM) | 2 (≈ 2.44 µM) | 0.5 (≈ 0.61 µM) | 16 (≈ 19.5 µM) | 8 (≈ 9.76 µM) | 16 (≈ 19.5 µM) | 0.125 (≈ 0.152 µM) | 4 (≈ 4.88 µM) | > 32 | > 32 | 0.5 (≈ 0.61 µM) | 1 (≈ 1.22 µM) | 1 (≈ 1.22 µM) | 0.0625 (≈ 0.0762 µM) | – | MIC (H. influenzae strains; [12]): 0.25 µg/mL (≈ 0.305 µM); MIC (H. influenzae strains; [13]): 2 µg/mL (≈ 2.44 µM)
